According to paper PMC6683142, “The lipid-dependent structure and function of LacY can be recapitulated and analyzed in phospholipid-containing detergent micelles” (Scientific Reports, 2019):

Target: T1, lactose permease (LacY) (Escherichia coli, UniProt P02920, C154G)
T1 construct: LacY with all six native Trp residues and a C-terminal His6-Tag, DDM-solubilized, purified from PE-containing cells (correct topology)
T1 sequence (P02920 1-417 C154G): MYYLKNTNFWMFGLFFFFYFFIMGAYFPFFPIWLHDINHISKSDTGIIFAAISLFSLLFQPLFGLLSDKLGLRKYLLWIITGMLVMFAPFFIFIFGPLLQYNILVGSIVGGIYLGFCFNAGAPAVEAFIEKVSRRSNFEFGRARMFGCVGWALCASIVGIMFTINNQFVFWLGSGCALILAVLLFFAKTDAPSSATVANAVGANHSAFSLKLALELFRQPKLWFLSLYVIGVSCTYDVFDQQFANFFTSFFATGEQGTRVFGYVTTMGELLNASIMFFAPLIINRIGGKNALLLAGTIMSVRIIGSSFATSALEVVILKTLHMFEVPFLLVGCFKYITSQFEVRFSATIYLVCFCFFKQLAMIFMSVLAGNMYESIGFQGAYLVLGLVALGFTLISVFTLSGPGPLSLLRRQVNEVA
Assay: Trp → α-NPG FRET (quenching of W151) on purified protein in DDM micelles
Format: binding

O=[N+]([O-])c1ccc(O[C@H]2O[C@H](CO)[C@H](O)[C@H](O)[C@H]2O)cc1 [α-NPG]
Kd: 5.9 µM
